# Laboratory results: patent publication US20230348376A1 (TEIJIN PHARMA LIMITED, priority 2020, published 2023)
# Molecular target: T1, human VDR (Homo sapiens, UniProt P11473)
# T1 sequence (P11473 1-427): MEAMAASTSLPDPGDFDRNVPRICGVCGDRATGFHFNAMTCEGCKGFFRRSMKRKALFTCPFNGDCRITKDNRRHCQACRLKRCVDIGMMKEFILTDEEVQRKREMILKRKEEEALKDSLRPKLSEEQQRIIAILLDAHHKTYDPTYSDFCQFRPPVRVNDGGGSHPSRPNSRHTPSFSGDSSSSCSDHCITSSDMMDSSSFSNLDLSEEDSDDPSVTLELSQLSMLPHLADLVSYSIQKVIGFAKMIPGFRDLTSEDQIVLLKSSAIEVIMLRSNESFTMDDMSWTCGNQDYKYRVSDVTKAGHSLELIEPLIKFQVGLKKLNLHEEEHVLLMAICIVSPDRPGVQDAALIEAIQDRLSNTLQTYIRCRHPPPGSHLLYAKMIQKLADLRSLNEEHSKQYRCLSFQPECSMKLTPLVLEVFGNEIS
# T1 sequence (P19793 1-462 partner): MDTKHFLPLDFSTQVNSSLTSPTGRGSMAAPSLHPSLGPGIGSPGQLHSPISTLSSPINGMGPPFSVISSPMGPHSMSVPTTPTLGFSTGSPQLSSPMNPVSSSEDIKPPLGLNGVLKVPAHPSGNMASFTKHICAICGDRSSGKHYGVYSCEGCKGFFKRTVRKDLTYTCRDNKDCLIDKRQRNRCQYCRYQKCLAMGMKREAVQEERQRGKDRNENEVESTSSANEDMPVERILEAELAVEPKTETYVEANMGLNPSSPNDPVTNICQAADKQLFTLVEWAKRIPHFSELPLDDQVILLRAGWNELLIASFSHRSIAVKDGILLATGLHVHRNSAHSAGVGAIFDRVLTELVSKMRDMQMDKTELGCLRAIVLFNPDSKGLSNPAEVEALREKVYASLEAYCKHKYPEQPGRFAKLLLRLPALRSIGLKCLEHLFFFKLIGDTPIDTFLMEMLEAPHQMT
# Assay: Evaluation of VDR transcription activity in human osteoblasts (HOS cells), luciferase reporter
# Conditions: Activity (EC50, VDR transcription activity), HOS cells transfected with human VDR, human RXRα and DR3 luciferase reporter; 21 hours
row,EC50,SMILES
1,10 to 100 nM,"C[C@@H](CN1CC[C@@H](F)C1)[C@H]1CC[C@H]2/C(=C/C=C3CC(O)C[C@H](O)C3)CCC[C@]12C (stereo in doubt) [Compound B098, (1R,3S)-5-(2-((1R,3aS,7aR,E)-1-((R)-1-((R)-3-fluoropyrrolidin-1-yl)propan-2-yl)-7a-methyloctahydro-4H-inden-4-ylidene)ethylidene)cyclohexane-1,3-diol]"
2,10 to 100 nM,"C[C@@H](CN1CC[C@H](C(F)F)C1)[C@H]1CC[C@H]2/C(=C/C=C3CC(O)C[C@H](O)C3)CCC[C@]12C (stereo in doubt) [Compound B099, (1R,3S)-5-(2-((1R,3aS,7aR,E)-1-((R)-1-((S)-3-(difluoromethyl)pyrrolidin-1-yl)propan-2-yl)-7a-methyloctahydro-4H-inden-4-ylidene)ethylidene)cyclohexane-1,3-diol]"
3,1 to 10 nM,"C[C@@H](CN1CC[C@@H](C(F)F)C1)[C@H]1CC[C@H]2/C(=C/C=C3CC(O)C[C@H](O)C3)CCC[C@]12C (stereo in doubt) [Compound B100, (1R,3S)-5-(2-((1R,3aS,7aR,E)-1-((R)-1-((R)-3-(difluoromethyl)pyrrolidin-1-yl)propan-2-yl)-7a-methyloctahydro-4H-inden-4-ylidene)ethylidene)cyclohexane-1,3-diol]"
4,10 to 100 nM,"C[C@@H](CN1CC[C@H](C(C)(F)F)C1)[C@H]1CC[C@H]2/C(=C/C=C3CC(O)C[C@H](O)C3)CCC[C@]12C (stereo in doubt) [Compound B101, (1R,3S)-5-(2-((1R,3aS,7aR,E)-1-((R)-1-((S)-3-(1,1-difluoroethyl)pyrrolidin-1-yl)propan-2-yl)-7a-methyloctahydro-4H-inden-4-ylidene)ethylidene)cyclohexane-1,3-diol]"
5,1 to 10 nM,"C[C@@H](CN1CC[C@@H](C(C)(F)F)C1)[C@H]1CC[C@H]2/C(=C/C=C3CC(O)C[C@H](O)C3)CCC[C@]12C (stereo in doubt) [Compound B102, (1R,3S)-5-(2-((1R,3aS,7aR,E)-1-((R)-1-((R)-3-(1,1-difluoroethyl)pyrrolidin-1-yl)propan-2-yl)-7a-methyloctahydro-4H-inden-4-ylidene)ethylidene)cyclohexane-1,3-diol]"
6,10 to 100 nM,"C[C@@H](CN1CC[C@@H](CC(F)F)C1)[C@H]1CC[C@H]2/C(=C/C=C3CC(O)C[C@H](O)C3)CCC[C@]12C (stereo in doubt) [Compound B103, (1R,3 S)-5-(2-((1R,3aS,7aR,E)-1-((R)-1-((S)-3-(2,2-difluoroethyl)pyrrolidin-1-yl)propan-2-yl)-7a-methyloctahydro-4H-inden-4-ylidene)ethylidene)cyclohexane-1,3-diol]"
7,1 to 10 nM,"C=C1C(O)CC(=C/C=C2\CCC[C@]3(C)[C@@H]([C@H](C)CCN4CCOC5(CC5)C4)CC[C@@H]23)C[C@H]1O (stereo in doubt) [Compound D026, (1R,3S)-5-(2-((1R,3aS,7aR,E)-1-((R)-4-(4-oxa-7-azaspiro[2.5]octan-7-yl)butan-2-yl)-7a-methyloctahydro-4H-inden-4-ylidene)ethylidene)-2-methylenecyclohexane-1,3-diol]"
8,10 to 100 nM,"C=C1/C(=C\C=C2/CCC[C@]3(C)[C@@H]([C@H](C)CCN4CCOC[C@H]4C)CC[C@@H]23)C[C@@H](O)CC1O (stereo in doubt) [Compound D046, (1R,3R,Z)-5-(2-((1R,3aS,7aR,E)-7a-methyl-1-((R)-4-((R)-3-methylmorpholino)butan-2-yl)octahydro-4H-inden-4-ylidene)ethylidene)-4-methylenecyclohexane-1,3-diol]"
9,10 to 100 nM,"C=C1[C@H](O)CC(=C/C=C2\CCC[C@]3(C)[C@@H]([C@H](C)CN4CC(F)C4)CC[C@@H]23)C[C@H]1O [Compound A002, (1R,3R)-5-(2-((1R,3aS,7aR,E)-1-((S)-1-(3-fluoroazetidin-1-yl)propan-2-yl)-7a-methyloctahydro-4H-inden-4-ylidene)ethylidene)-2-methylenecyclohexane-1,3-diol]"
10,10 to 100 nM,"C=C1/C(=C\C=C2/CCC[C@]3(C)[C@@H]([C@H](C)CN4CC(C(C)(F)F)C4)CC[C@@H]23)C[C@@H](O)C[C@@H]1O [Compound A006, (1R,3S,Z)-5-(2-((1R,3aS,7aR,E)-1-((S)-1-(3-(1,1-difluoroethyl)azetidin-1-yl)propan-2-yl)-7a-methyloctahydro-4H-inden-4-ylidene)ethylidene)-4-methylenecyclohexane-1,3-diol]"
11,10 to 100 nM,"C=C1[C@H](O)CC(=C/C=C2\CCC[C@]3(C)[C@@H]([C@H](C)CN4CC(C(C)(F)F)C4)CC[C@@H]23)C[C@H]1O [Compound A007, (1R,3R)-5-(2-((1R,3aS,7aR,E)-1-((S)-1-(3-(1,1-difluoroethyl)azetidin-1-yl)propan-2-yl)-7a-methyloctahydro-4H-inden-4-ylidene)ethylidene)-2-methylenecyclohexane-1,3-diol]"
12,10 to 100 nM,"C=C1/C(=C\C=C2/CCC[C@]3(C)[C@@H]([C@H](C)CN4CC(C(C)(F)F)C4)CC[C@@H]23)C[C@@H](O)[C@H](C)[C@@H]1O [Compound A008, (1R,2S,3S,Z)-5-(2-((1R,3aS,7aR,E)-1-((S)-1-(3-(1,1-difluoroethyl)azetidin-1-yl)propan-2-yl)-7a-methyloctahydro-4H-inden-4-ylidene)ethylidene)-2-methyl-4-methylenecyclohexane-1,3-diol]"
13,1 to 10 nM,"C=C1/C(=C\C=C2/CCC[C@]3(C)[C@@H]([C@H](C)CN4CC(O)(C(F)(F)F)C4)CC[C@@H]23)C[C@@H](O)C[C@@H]1O [Compound A009, (1R,3S,Z)-5-(2-((1R,3aS,7aR,E)-1-((S)-1-(3-hydroxy-3-(trifluoromethyl)azetidin-1-yl)propan-2-yl)-7a-methyloctahydro-4H-inden-4-ylidene)ethylidene)-4-methylenecyclohexane-1,3-diol]"
14,1 to 10 nM,"C[C@H](CN1CC(O)(C(F)(F)F)C1)[C@H]1CC[C@H]2/C(=C/C=C3C[C@@H](O)C[C@H](O)C3)CCC[C@]12C [Compound A010, (1R,3R)-5-(2-((1R,3aS,7aR,E)-1-((S)-1-(3-hydroxy-3-(trifluoromethyl)azetidin-1-yl)propan-2-yl)-7a-methyloctahydro-4H-inden-4-ylidene)ethylidene)cyclohexane-1,3-diol]"
15,< 1 nM,"C=C1[C@H](O)CC(=C/C=C2\CCC[C@]3(C)[C@@H]([C@H](C)CN4CC(O)(C(F)(F)F)C4)CC[C@@H]23)C[C@H]1O [Compound A011, (1R,3R)-5-(2-((1R,3aS,7aR,E)-1-((S)-1-(3-hydroxy-3-(trifluoromethyl)azetidin-1-yl)propan-2-yl)-7a-methyloctahydro-4H-inden-4-ylidene)ethylidene)-2-methylenecyclohexane-1,3-diol]"
16,10 to 100 nM,"COC1(C(F)(F)F)CN(C[C@@H](C)[C@H]2CC[C@H]3/C(=C/C=C4C[C@@H](O)C[C@H](O)C4)CCC[C@]23C)C1 [Compound A012, (1R,3R)-5-(2-((1R,3aS,7aR,E)-1-((S)-1-(3-methoxy-3-trifluoromethylazetidin-1-yl)propan-2-yl)-7a-methyloctahydro-4H-inden-4-ylidene)ethylidene)cyclohexane-1,3-diol]"
17,100 to 1000 nM,C[C@H](CN1CC(OC(F)(F)F)C1)[C@H]1CC[C@H]2/C(=C/C=C3C[C@@H](O)C[C@H](O)C3)CCC[C@]12C [Compound A013]
18,10 to 100 nM,"C=C1[C@H](O)CC(=C/C=C2\CCC[C@]3(C)[C@@H]([C@H](C)CN4CC(OCC(F)F)C4)CC[C@@H]23)C[C@H]1O [Compound A016, (1R,3R)-5-(2-((1R,3aS,7aR,E)-1-((S)-1-(3-(2,2-difluoroethoxy)azetidin-1-yl)propan-2-yl)-7a-methyloctahydro-4H-inden-4-ylidene)ethylidene)-2-methylenecyclohexane-1,3-diol]"
19,1 to 10 nM,C=C1[C@H](O)CC(=C/C=C2\CCC[C@]3(C)[C@@H]([C@H](C)CN4CC(OC(F)F)C4)CC[C@@H]23)C[C@H]1O [Compound A018]
20,100 to 1000 nM,"C[C@H](CN1CC(CC(F)F)C1)[C@H]1CC[C@H]2/C(=C/C=C3C[C@@H](O)C[C@H](O)C3)CCC[C@]12C [Compound A021, (1R,3R)-5-(2-((1R,3aS,7aR,E)-1-((S)-1-(3-(2,2-difluoroethyl)azetidin-1-yl)propan-2-yl)-7a-methyloctahydro-4H-inden-4-ylidene)ethylidene)cyclohexane-1,3-diol]"
21,< 1 nM,"C=C1[C@H](O)CC(=C/C=C2\CCC[C@]3(C)[C@@H]([C@H](C)CCN4CC(O)(C(F)(F)F)C4)CC[C@@H]23)C[C@H]1O [Compound A023, (1R,3R)-5-(2-((1R,3aS,7aR,E)-1-((R)-4-(3-hydroxy-3-(trifluoromethyl)azetidin-1-yl)butan-2-yl)-7a-methyloctahydro-4H-inden-4-ylidene)ethylidene)-2-methylenecyclohexane-1,3-diol]"
